ChEMBL document CHEMBL5352444, “Development of benzene and benzothiazole-sulfonamide analogues as selective inhibitors of the tumor-associated carbonic anhydrase IX” (Eur J Med Chem, 2022)

Experiments:
Carbonic anhydrase 1 = Carbonic anhydrase 1 (Homo sapiens, UniProt P00915); experiment: Inhibition of human carbonic anhydrase 1 assessed as inhibition constant preincubated for 15 mins and measured for 10 to 100 sec by phenol red dye based stopped flow CO2 hydration assay
Carbonic anhydrase 2 = Carbonic anhydrase 2 (Homo sapiens, UniProt P00918); experiment: Inhibition of human carbonic anhydrase 2 assessed as inhibition constant preincubated for 15 mins and measured for 10 to 100 sec by phenol red dye based stopped flow CO2 hydration assay
Carbonic anhydrase 4 = Carbonic anhydrase 4 (Homo sapiens, UniProt P22748); experiment: Inhibition of human carbonic anhydrase 4 assessed as inhibition constant preincubated for 15 mins and measured for 10 to 100 sec by phenol red dye based stopped flow CO2 hydration assay
Carbonic anhydrase 9 = Carbonic anhydrase 9 (Homo sapiens, UniProt Q16790); experiment: Inhibition of human carbonic anhydrase 9 assessed as inhibition constant incubated for 15 mins by phenol red dye based stopped flow CO2 hydration assay
[1] = Cytotoxicity against HGF cells assessed as increase in cell viability at 50 uM incubated for 48 hrs by MTT assay relative to doxorubicin; format: toxicity, cell-based; settings: human
[2] = Cytotoxicity against HGF cells assessed as increase in cell viability at 10 uM incubated for 48 hrs by MTT assay relative to doxorubicin; format: toxicity, cell-based; settings: human
[3] = Cytotoxicity against HGF cells assessed as increase in cell viability at 50 uM incubated for 72 hrs by MTT assay relative to control; format: toxicity, cell-based; settings: human
[4] = Cytotoxicity against HGF cells assessed as cell viability at 50 uM incubated for 72 hrs by MTT assay relative to control; format: toxicity, cell-based; settings: human, read-out: Activity
[5] = Cytotoxicity against HGF cells assessed as increase in cell viability at 10 uM incubated for 72 hrs by MTT assay relative to doxorubicin; format: toxicity, cell-based; settings: human
[6] = Cytotoxicity against HGF cells assessed as increase in cell viability at 10 uM incubated for 72 hrs by MTT assay relative to control; format: toxicity, cell-based; settings: human
[7] = Cytotoxicity against HGF cells assessed as increase in cell viability at 50 uM incubated for 48 hrs by MTT assay relative to control; format: toxicity, cell-based; settings: human
[8] = Cytotoxicity against HGF cells assessed as increase in cell viability at 10 uM incubated for 48 hrs by MTT assay relative to control; format: toxicity, cell-based; settings: human

Carbonic anhydrase 4, sequence (P22748 whole entry): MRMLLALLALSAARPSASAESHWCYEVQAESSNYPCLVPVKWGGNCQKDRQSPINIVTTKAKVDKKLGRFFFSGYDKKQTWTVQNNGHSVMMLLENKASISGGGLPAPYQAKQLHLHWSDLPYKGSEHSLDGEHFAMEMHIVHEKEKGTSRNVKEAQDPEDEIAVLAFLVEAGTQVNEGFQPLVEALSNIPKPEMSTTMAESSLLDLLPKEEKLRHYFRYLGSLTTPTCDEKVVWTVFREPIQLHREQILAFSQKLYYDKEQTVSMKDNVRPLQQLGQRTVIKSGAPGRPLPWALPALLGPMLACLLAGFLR
Carbonic anhydrase 1, sequence (P00915 whole entry): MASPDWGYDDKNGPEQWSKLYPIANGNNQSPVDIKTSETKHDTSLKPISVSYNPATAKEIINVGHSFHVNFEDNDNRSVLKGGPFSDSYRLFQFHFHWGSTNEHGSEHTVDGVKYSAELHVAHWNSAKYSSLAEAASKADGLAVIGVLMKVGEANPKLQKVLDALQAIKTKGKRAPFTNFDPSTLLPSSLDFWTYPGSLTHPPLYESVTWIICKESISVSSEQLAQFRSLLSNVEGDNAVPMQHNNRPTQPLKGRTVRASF

Ki (Carbonic anhydrase 1) | Ki (Carbonic anhydrase 2) | Ki (Carbonic anhydrase 4) | Ki (Carbonic anhydrase 9) | SMILES | Activity [1] | Activity [2] | Activity [3] | viability at 72 h, 50 µM [4] | Activity [5] | Activity [6] | Activity [7] | Activity [8]
85.6 nM | 3.8 nM | 7440 nM | 26.6 nM | NS(=O)(=O)c1ccc2nc(NC(=O)CSC(=S)N3CCCCC3)sc2c1 | – | – | – | – | – | – | – | –
– | – | – | – | CC(=O)Nc1nnc(S(N)(=O)=O)s1 [ACETAZOLAMIDE] | Non-Toxic | Non-Toxic | Toxic | > 60% | Non-Toxic | – | – | –
20.8 nM | 4.1 nM | 5090 nM | 30.6 nM | CN1CCN(C(=S)SCC(=O)Nc2nc3ccc(S(N)(=O)=O)cc3s2)CC1 | – | – | – | – | – | – | – | –
599 nM | 297 nM | 5540 nM | 25.9 nM | NS(=O)(=O)c1ccc2nc(NC(=O)CSC(=S)N3CCN(Cc4ccccc4)CC3)sc2c1 | Non-Toxic | Non-Toxic | Toxic | > 60% | Non-Toxic | Toxic | – | –
5030 nM | 51.5 nM | 7260 nM | 30.3 nM | COc1ccccc1N1CCN(C(=S)SCC(=O)Nc2nc3ccc(S(N)(=O)=O)cc3s2)CC1 | Non-Toxic | Non-Toxic | Toxic | > 60% | Non-Toxic | Toxic | – | –
2010 nM | 371 nM | 2310 nM | 1250 nM | Cc1ccc(N2CCN(C(=S)SCC(=O)Nc3ccc(S(N)(=O)=O)cc3)CC2)cc1 | – | – | – | – | – | – | – | –
4190 nM | 91.4 nM | > 10000 nM | 115 nM | NS(=O)(=O)c1ccc2nc(NC(=O)CSC(=S)N3CCN(c4ccccc4)CC3)sc2c1 | – | – | – | – | – | – | – | –
– | – | – | – | COc1cccc2c1C(=O)c1c(O)c3c(c(O)c1C2=O)C[C@@](O)(C(=O)CO)C[C@@H]3O[C@H]1C[C@H](N)[C@H](O)[C@H](C)O1 [DOXORUBICIN] | – | – | Toxic | – | – | Toxic | Toxic | Toxic
8.8 nM | 27.9 nM | 8120 nM | 26.8 nM | NS(=O)(=O)c1ccc2nc(NC(=O)CSC(=S)N3CCOCC3)sc2c1 | – | – | – | – | – | – | – | –
7570 nM | 50.3 nM | > 10000 nM | 22.1 nM | CCOC(=O)N1CCN(C(=S)SCC(=O)Nc2nc3ccc(S(N)(=O)=O)cc3s2)CC1 | Non-Toxic | Non-Toxic | Toxic | > 60% | Non-Toxic | Toxic | – | –
72.8 nM | 7.2 nM | 649 nM | 162 nM | NS(=O)(=O)c1ccc(NC(=O)CSC(=S)N2CCOCC2)cc1 | – | – | – | – | – | – | – | –
54.8 nM | 5.7 nM | 779 nM | 136 nM | CCOC(=O)N1CCN(C(=S)SCC(=O)Nc2ccc(S(N)(=O)=O)cc2)CC1 | – | – | – | – | – | – | – | –
707 nM | 240 nM | 1470 nM | 744 nM | NS(=O)(=O)c1ccc(NC(=O)CSC(=S)N2CCN(c3ccccc3)CC2)cc1 | – | – | – | – | – | – | – | –
8.2 nM | 4.9 nM | 189 nM | 296 nM | CCN1CCN(C(=S)SCC(=O)Nc2ccc(S(N)(=O)=O)cc2)CC1 | – | – | – | – | – | – | – | –
958 nM | 363 nM | > 10000 nM | 30.9 nM | COc1ccc(N2CCN(C(=S)SCC(=O)Nc3nc4ccc(S(N)(=O)=O)cc4s3)CC2)cc1 | Non-Toxic | Non-Toxic | Toxic | > 60% | Non-Toxic | Toxic | – | –
56.1 nM | 2.5 nM | 5930 nM | 28.8 nM | CCN1CCN(C(=S)SCC(=O)Nc2nc3ccc(S(N)(=O)=O)cc3s2)CC1 | – | – | – | – | – | – | – | –
2080 nM | 298 nM | 901 nM | 564 nM | COc1ccc(N2CCN(C(=S)SCC(=O)Nc3ccc(S(N)(=O)=O)cc3)CC2)cc1 | – | – | – | – | – | – | – | –
2120 nM | 438 nM | 2440 nM | 276 nM | NS(=O)(=O)c1ccc(NC(=O)CSC(=S)N2CCN(c3ccc(F)c(Cl)c3)CC2)cc1 | – | – | – | – | – | – | – | –
27.5 nM | 6 nM | 406 nM | 261 nM | NS(=O)(=O)c1ccc(NC(=O)CSC(=S)N2CCCCC2)cc1 | – | – | – | – | – | – | – | –
36.6 nM | 611 nM | > 10000 nM | 32.2 nM | COc1ccccc1N1CCN(C(=S)SCC(=O)Nc2ccc(S(N)(=O)=O)cc2)CC1 | Non-Toxic | Non-Toxic | Toxic | > 60% | Non-Toxic | Toxic | Toxic | –
9150 nM | 965 nM | 7640 nM | 157 nM | NS(=O)(=O)c1ccc2nc(NC(=O)CSC(=S)N3CCN(C(c4ccccc4)c4ccccc4)CC3)sc2c1 | – | – | – | – | – | – | – | –
– | – | 420 nM | 255 nM | CN1CCN(C(=S)SCC(=O)Nc2ccc(S(N)(=O)=O)cc2)CC1 | – | – | – | – | – | – | – | –
84.1 nM | 17.4 nM | 3400 nM | 31.6 nM | NS(=O)(=O)c1ccc(NC(=O)CSC(=S)N2CCN(Cc3ccccc3)CC2)cc1 | – | – | – | – | – | – | – | –
1810 nM | 441 nM | 8450 nM | 154 nM | NS(=O)(=O)c1ccc(NC(=O)CSC(=S)N2CCN(C(c3ccccc3)c3ccccc3)CC2)cc1 | – | – | – | – | – | – | – | –
